Data as given in patent US20260207563A1, “UREA COMPOUNDS AS ACTIVATORS OF POTASSIUM CHANNELS KV7.2/7.3 USEFUL IN THE TREATMENT OF CNS AND PNS DISORDERS” (ANGELINI PHARMA S.P.A., priority 2022, published 2026).

Tests used:
Format in all cases: cell-based
[1] = biological target: T1, homomeric KV7.4 channel (KCNQ4) (Homo sapiens, UniProt P56696); experiment: Automated patch-clamp (Qube) counter-screening assay against KV7.4 channel; settings: CHO-K1 cells expressing KV7.4; class by maximal shift in the Vhalf at 30 μM
T1 construct: host or cells: CHO-K1
From the text: Assessment of In Vitro Potency Against KV7.4 Channels
A counter-screening assay was also developed on the Qube against the homomeric KV7.4 channel (KCNQ4, Uniprot ID P56696). The cell line used was a stably transfected CHO-K1 with constitutive KV7.4 expression supplied by Charles River Laboratories.
CHO-K1 cells stably expressing KV7.4 channels were maintained in the following culture media: • Hams F-12 with GlutaMAX™ (Life Technologies 31765027), • 10% Fetal clone 2 serum (Perbio Science SH30066.03), and • 250 μg/ml Geneticin™ selective antibiotic (G418, Invitrogen 1013-027).
(§1) Cell maintenance, preparation, recording conditions and voltage protocols were all identical to those above.
(§2) Analysis of Data for Assessment of Potency
(§3) 10 concentrations of test compounds were applied to individual wells in quadruplicate to assess potency as a 1 in 3 dilution series from the maximal concentration of 30 μM. The average shift in the voltage for half activation (Vhalf) for each concentration was used to generate concentration-response curves fitted with a 4-parameter logistic model to estimate the EC50 from the point of inflection of the curve and the maximal shift in the Vhalf from the top of the curve.
(§4) The lower the EC50 value, the higher the potency of the analyzed compound. The selectivity criteria is assigned on the basis of the maximal shift in the Vhalf at 30 μM. […] In Table 3, ND means that selectivity was not determined.

[2] = biological target: T2, heteromeric KV7.2/KV7.3 channels (KCNQ2, KCNQ3) (Homo sapiens, UniProt O43525+O43526); experiment: Automated patch-clamp (Sophion Qube 384) potency assay against KV7.2/KV7.3 channels; settings: CHO-K1/Kv7.2/Kv7.3 cells; for EC50: EC50 from concentration-response of shift in Vhalf, 10 concentrations up to 30 μM, read-out: Kv7.2/7.3 EC50; for Kv7.2/7.3 ΔV1/2: maximal shift in the Vhalf from the top of the curve
T2 construct: expressed in transfected cells; host or cells: CHO-K1
In short: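 Whole-cell automated patch clamp on CHO-K1 cells stably expressing human KV7.2/KV7.3, held at −80 mV; I-V steps −100 to +20 mV (1 s) with 0 mV tail pulses, Boltzmann-fitted activation curves. Ten concentrations (1:3 from 30 μM, quadruplicate) versus 0.3% DMSO control; EC50 and maximal shift from 4-parameter fits of Vhalf shift.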

[3] = biological target: T3, heteromeric KV7.3/KV7.5 channel (KCNQ3, KCNQ5) (Homo sapiens, UniProt O43525+Q9NR82); experiment: Automated patch-clamp counter-screening against KV7.3/KV7.5 channel; settings: HEK293 cells expressing Kv7.3/KV7.5; class by maximal shift in the Vhalf at 30 μM
T3 construct: host or cells: HEK293
Method: Assessment of in vitro potency against KV7.3/KV7.5 channels
Counter-screening was also carried out against the heteromeric KV7.3/KV7.5 channel (KCNQ3, Uniprot ID 043525; KCNQ5, Uniprot ID Q9NR82). The cell line used was a stably transfected HEK293 cell line with constitutive Kv7.3 expression and tetracycline inducible KV7.5 expression supplied by Charles River Laboratories.
Cells were maintained in the following culture media: • DMEM/F-12 with GlutaMAX™ (Life Technologies 31331-028), • 10% Tet Systems FCS (Clonetech 631106), • 500 μg/ml Geneticin™ selective antibiotic (G418, Invitrogen 1013-027), • 5 μg/ml Blasticidin S HCl (InvivoGen ant-bl-5), and • 100 μg/ml Zeocin (InvivoGen: ant-zn-5).
as §1, §2, §3, §4

| SMILES | Kv7.4 selectivity criteria [1] | EC50 [2] | Kv7.2/7.3 ΔV1/2 [2] | Kv7.3/7.5 selectivity criteria [3] |
| --- | --- | --- | --- | --- |
| O=C(NCCC1(C(F)(F)F)CC1)NCc1ccnc(OCCF)c1 [Compound 17, 1-((2-(2-Fluoroethoxy)pyridin-4-yl)methyl)-3-(2-(1-(trifluoromethyl)cyclopropyl)ethyl)urea] | A (Selective compounds showed Kv7.4 and/or Kv7.3/7.5 ΔV1/2 equal to or lower than 15 mV (letter A in table 3)) | 5450 nM | 28.27 mV | A (Selective compounds showed Kv7.4 and/or Kv7.3/7.5 ΔV1/2 equal to or lower than 15 mV (letter A in table 3)) |
| O=C(NCCC1(C(F)(F)F)CC1)NCc1ccnc(OCC(F)F)c1 [Compound 18, 1-((2-(2,2-Difluoroethoxy)pyridin-4-yl)methyl)-3-(2-(1-(trifluoromethyl)cyclopropyl)ethyl)urea] | A (Selective compounds showed Kv7.4 and/or Kv7.3/7.5 ΔV1/2 equal to or lower than 15 mV (letter A in table 3)) | 649 nM | 24.69 mV | A (Selective compounds showed Kv7.4 and/or Kv7.3/7.5 ΔV1/2 equal to or lower than 15 mV (letter A in table 3)) |
| O=C(NCCC1(C(F)(F)F)CC1)NCc1ccnc(OCc2ccccc2F)c1 [Compound 19, 1-((2-((2-Fluorobenzyl)oxy)pyridin-4-yl)methyl)-3-(2-(1-(trifluoromethyl)cyclopropyl)ethyl)urea] | A (Selective compounds showed Kv7.4 and/or Kv7.3/7.5 ΔV1/2 equal to or lower than 15 mV (letter A in table 3)) | 263 nM | 23.76 mV | A (Selective compounds showed Kv7.4 and/or Kv7.3/7.5 ΔV1/2 equal to or lower than 15 mV (letter A in table 3)) |
| CC(F)(F)COc1cc(CNC(=O)NCCC2(C(F)(F)F)CC2)ccn1 [Compound 20, 1-((2-(2,2-Difluoropropoxy)pyridin-4-yl)methyl)-3-(2-(1-(trifluoromethyl)cyclopropyl)ethyl)urea] | A (Selective compounds showed Kv7.4 and/or Kv7.3/7.5 ΔV1/2 equal to or lower than 15 mV (letter A in table 3)) | 689 nM | 29.4 mV | A (Selective compounds showed Kv7.4 and/or Kv7.3/7.5 ΔV1/2 equal to or lower than 15 mV (letter A in table 3)) |
| O=C(NCCC1(C(F)(F)F)CC1)NC1CCCc2cnc(OCC(F)(F)F)cc21 (centres unmarked) [Compound 21, 1-(3-(2,2,2-Trifluoroethoxy)-5,6,7,8-tetrahydroisoquinolin-5-yl)-3-(2-(1-(trifluoromethyl)cyclopropyl)ethyl)urea] | B (Non-selective compounds showed Kv7.4 and/or Kv7.3/7.5 ΔV1/2 higher than 15 mV (letter B in table 3)) | 1800 nM | 14.76 mV | B (Non-selective compounds showed Kv7.4 and/or Kv7.3/7.5 ΔV1/2 higher than 15 mV (letter B in table 3)) |
| O=C(NCCC1(C(F)(F)F)CC1)NCc1ccnc(OCC2(F)CC2)c1 [Compound 22, 1-((2-((1-Fluorocyclopropyl)methoxy)pyridin-4-yl)methyl)-3-(2-(1-(trifluoromethyl)cyclopropyl)ethyl)urea] | A (Selective compounds showed Kv7.4 and/or Kv7.3/7.5 ΔV1/2 equal to or lower than 15 mV (letter A in table 3)) | 1940 nM | 27.07 mV | A (Selective compounds showed Kv7.4 and/or Kv7.3/7.5 ΔV1/2 equal to or lower than 15 mV (letter A in table 3)) |
| O=C(NCCC1(C(F)(F)F)CC1)NCc1ccnc(OCc2ccccn2)c1 [Compound 23, 1-((2-(Pyridin-2-ylmethoxy)pyridin-4-yl)methyl)-3-(2-(1-(trifluoromethyl)cyclopropyl)ethyl)urea] | A (Selective compounds showed Kv7.4 and/or Kv7.3/7.5 ΔV1/2 equal to or lower than 15 mV (letter A in table 3)) | 4750 nM | 18.69 mV | A (Selective compounds showed Kv7.4 and/or Kv7.3/7.5 ΔV1/2 equal to or lower than 15 mV (letter A in table 3)) |
| O=C(NCCC1(C(F)(F)F)CC1)NCc1ccnc(OCC2(F)COC2)c1 [Compound 24, 1-((2-((3-Fluorooxetan-3-yl)methoxy)pyridin-4-yl)methyl)-3-(2-(1-(trifluoromethyl)cyclopropyl)ethyl)urea] | A (Selective compounds showed Kv7.4 and/or Kv7.3/7.5 ΔV1/2 equal to or lower than 15 mV (letter A in table 3)) | 11000 nM | 17.14 mV | A (Selective compounds showed Kv7.4 and/or Kv7.3/7.5 ΔV1/2 equal to or lower than 15 mV (letter A in table 3)) |
| O=C(NCCC1(C(F)(F)F)CC1)NCc1ccnc(OCc2ccc(F)cc2F)c1 [Compound 25, 1-((2-((2,4-Difluorobenzyl)oxy)pyridin-4-yl)methyl)-3-(2-(1-(trifluoromethyl)cyclopropyl)ethyl)urea] | A (Selective compounds showed Kv7.4 and/or Kv7.3/7.5 ΔV1/2 equal to or lower than 15 mV (letter A in table 3)) | 400 nM | 25.77 mV | A (Selective compounds showed Kv7.4 and/or Kv7.3/7.5 ΔV1/2 equal to or lower than 15 mV (letter A in table 3)) |
| O=C(NCCC1(C(F)(F)F)CC1)NCc1cc(OCC(F)(F)F)nc(N2CCOCC2)c1 [Compound 26, 1-((2-Morpholino-6-(2,2,2-trifluoroethoxy)pyridin-4-yl)methyl)-3-(2-(1-(trifluoromethyl)cyclopropyl)ethyl)urea] | B (Non-selective compounds showed Kv7.4 and/or Kv7.3/7.5 ΔV1/2 higher than 15 mV (letter B in table 3)) | 5140 nM | 31.67 mV | A (Selective compounds showed Kv7.4 and/or Kv7.3/7.5 ΔV1/2 equal to or lower than 15 mV (letter A in table 3)) |
| O=C(NCCC1(C(F)(F)F)CC1)NCc1cc(OCc2ccc(F)cc2)nc(N2CCOCC2)c1 [Compound 27, 1-((2-((4-Fluorobenzyl)oxy)-6-morpholinopyridin-4-yl)methyl)-3-(2-(1-(trifluoromethyl)cyclopropyl)ethyl)urea] | B (Non-selective compounds showed Kv7.4 and/or Kv7.3/7.5 ΔV1/2 higher than 15 mV (letter B in table 3)) | 8020 nM | 18.22 mV | B (Non-selective compounds showed Kv7.4 and/or Kv7.3/7.5 ΔV1/2 higher than 15 mV (letter B in table 3)) |
| O=C(NCCC1(C(F)(F)F)CC1)NCc1cccc(OCC(F)(F)F)n1 [Compound 31, 1-((6-(2,2,2-Trifluoroethoxy)pyridin-2-yl)methyl)-3-(2-(1-(trifluoromethyl)cyclopropyl)ethyl)urea] | A (Selective compounds showed Kv7.4 and/or Kv7.3/7.5 ΔV1/2 equal to or lower than 15 mV (letter A in table 3)) | 3080 nM | 25.36 mV | B (Non-selective compounds showed Kv7.4 and/or Kv7.3/7.5 ΔV1/2 higher than 15 mV (letter B in table 3)) |
| O=C(NCc1ccnc(OCC(F)(F)F)c1)NCC1(C(F)(F)F)CC1 [Compound 35, 1-((2-(2,2,2-Trifluoroethoxy)pyridin-4-yl)methyl)-3-((1-(trifluoromethyl)cyclopropyl)methyl)urea] | B (Non-selective compounds showed Kv7.4 and/or Kv7.3/7.5 ΔV1/2 higher than 15 mV (letter B in table 3)) | 649 nM | 38.22 mV | B (Non-selective compounds showed Kv7.4 and/or Kv7.3/7.5 ΔV1/2 higher than 15 mV (letter B in table 3)) |
| O=C(NCc1ccnc(OCC(F)(F)F)c1)NCC1CCCCC1 [Compound 36, 1-(Cyclohexylmethyl)-3-((2-(2,2,2-trifluoroethoxy)pyridin-4-yl)methyl)urea] | A (Selective compounds showed Kv7.4 and/or Kv7.3/7.5 ΔV1/2 equal to or lower than 15 mV (letter A in table 3)) | 435 nM | 31.09 mV | A (Selective compounds showed Kv7.4 and/or Kv7.3/7.5 ΔV1/2 equal to or lower than 15 mV (letter A in table 3)) |
